Laboratory results from ChEMBL document CHEMBL4382288, “Synthesis of 12-O-Mono- and Diglycosyl-oxystearates, a New Class of Agonists for the C-type Lectin Receptor Mincle” (ACS Med Chem Lett, 2019).
Activity calls are given as the source filed them. The rule behind the calls is not given here.

Assays:
[1] = biological target: T1, C-type lectin domain family 4 member E (Homo sapiens) (UniProt Q9ULY5); assay: Agonist activity at human mincle coupled with FcRgamma expressed in 2B4-NFAT-GFP reporter cells at 3 nmol/well after 16 hrs by flow cytometric analysis; assay type: cell-based
T1 sequence (whole entry): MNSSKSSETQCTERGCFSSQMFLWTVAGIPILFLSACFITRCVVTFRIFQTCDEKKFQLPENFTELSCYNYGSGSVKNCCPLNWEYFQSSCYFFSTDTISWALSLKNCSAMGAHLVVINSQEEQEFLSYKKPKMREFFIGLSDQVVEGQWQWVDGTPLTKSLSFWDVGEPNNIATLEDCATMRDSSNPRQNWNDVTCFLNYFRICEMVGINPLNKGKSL

[2] = biological target: T2, C-type lectin domain family 4 member E (Mus musculus) (UniProt Q9R0Q8); assay: Agonist activity at mouse mincle coupled with FcRgamma expressed in 2B4-NFAT-GFP reporter cells at 3 nmol/well after 16 hrs by flow cytometric analysis; assay type: cell-based
T2 sequence (whole entry): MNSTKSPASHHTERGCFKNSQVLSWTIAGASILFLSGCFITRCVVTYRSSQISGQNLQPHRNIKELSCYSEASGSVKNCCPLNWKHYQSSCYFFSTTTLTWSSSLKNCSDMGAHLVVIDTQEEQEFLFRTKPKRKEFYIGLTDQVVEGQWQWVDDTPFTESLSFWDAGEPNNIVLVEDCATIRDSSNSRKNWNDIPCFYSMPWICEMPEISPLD

CCCCCCC(CCCCCCCCCCC(=O)OC)O[C@H]1O[C@H](CO)[C@@H](O)[C@H](O)[C@@H]1O[C@@H]1O[C@H](CO)[C@@H](O)[C@H](O)[C@@H]1O (some centres undefined)
Activity [1]: Active | Activity [2]: Active

CCCCCCC(CCCCCCCCCCC(=O)OC)O[C@H]1O[C@H](CO)[C@@H](O)[C@H](O)[C@H]1O (some centres undefined)
Activity [1]: inactive | Activity [2]: inactive

CCCCCCC(CCCCCCCCCCC(=O)OC)O[C@@H]1O[C@H](CO[C@H]2O[C@H](CO)[C@@H](O)[C@H](O)[C@H]2O)[C@@H](O)[C@H](O)[C@H]1O (some centres undefined)
Activity [1]: inactive | Activity [2]: inactive

CCCCCCC(CCCCCCCCCCC(=O)OC)O[C@@H]1O[C@H](CO)[C@H](O)[C@H](O)[C@H]1O (some centres undefined)
Activity [1]: inactive | Activity [2]: inactive

CCCCCCC(CCCCCCCCCCC(=O)OC)O[C@@H]1O[C@H](CO)[C@@H](O[C@H]2O[C@H](CO)[C@@H](O)[C@H](O)[C@H]2O)[C@H](O)[C@H]1O (some centres undefined)
Activity [1]: inactive | Activity [2]: inactive

CCCCCCC(CCCCCCCCCCC(=O)OC)O[C@@H]1O[C@H](CO)[C@@H](O)[C@H](O)[C@@H]1O[C@H]1O[C@H](CO)[C@@H](O)[C@H](O)[C@@H]1O (some centres undefined)
Activity [1]: Active | Activity [2]: Active

CCCCCCC(CCCCCCCCCCC(=O)OC)O[C@H]1O[C@H](CO)[C@@H](O)[C@H](O)[C@@H]1O[C@H]1O[C@H](CO)[C@@H](O)[C@H](O)[C@@H]1O (some centres undefined)
Activity [1]: Active | Activity [2]: Active

CCCCCCC(CCCCCCCCCCC(=O)OC)O[C@H]1O[C@H](CO)[C@@H](O)[C@H](O)[C@@H]1O (some centres undefined)
Activity [1]: inactive | Activity [2]: inactive

CCCCCCC(CCCCCCCCCCC(=O)OC)O[C@@H]1O[C@H](CO[C@@H]2O[C@H](CO)[C@@H](O)[C@H](O)[C@H]2O)[C@@H](O)[C@H](O)[C@H]1O (some centres undefined)
Activity [2]: Active

CCCCCCC(CCCCCCCCCCC(=O)OC)O[C@@H]1O[C@H](CO)[C@@H](O)[C@H](O)[C@@H]1O (some centres undefined)
Activity [1]: inactive | Activity [2]: inactive

CCCCCCC(CCCCCCCCCCC(=O)OC)O[C@H]1O[C@H](CO)[C@H](O)[C@H](O)[C@H]1O (some centres undefined)
Activity [1]: inactive | Activity [2]: inactive

CCCCCCC(CCCCCCCCCCC(=O)OC)O[C@@H]1O[C@H](CO)[C@@H](O)[C@H](O)[C@H]1O (some centres undefined)
Activity [1]: inactive | Activity [2]: inactive

CCCCCCC(CCCCCCCCCCC(=O)OC)O[C@@H]1O[C@H](CO[C@H]2O[C@H](CO)[C@H](O)[C@H](O)[C@H]2O)[C@@H](O)[C@H](O)[C@H]1O (some centres undefined)
Activity [1]: inactive | Activity [2]: inactive

CCCCCCC(CCCCCCCCCCC(=O)OC)O[C@@H]1O[C@H](CO)[C@@H](O)[C@H](O)[C@@H]1O[C@@H]1O[C@H](CO)[C@@H](O)[C@H](O)[C@@H]1O (some centres undefined)
Activity [1]: Active | Activity [2]: Active

CCCCCCC(CCCCCCCCCCC(=O)OC)O[C@@H]1O[C@H](CO)[C@@H](O[C@@H]2O[C@H](CO)[C@@H](O)[C@H](O)[C@H]2O)[C@H](O)[C@H]1O (some centres undefined)
Activity [1]: inactive | Activity [2]: inactive
